Numbering of substitutions follows the chain as printed. Marks after values point to notes of the source that are not given here.

What all share (test): Agonist-induced currents, voltage clamp electrophysiology in Xenopus oocytes
Assay type in all cases: cell-based

The target of assay [1] is T1, N128V mutant 5-HT3 receptor (mouse 5-HT3A subunit) (Mus musculus, UniProt P23979, N128V).
T1 sequence (P23979 24-483 isoform P23979-2 N128V limits assumed): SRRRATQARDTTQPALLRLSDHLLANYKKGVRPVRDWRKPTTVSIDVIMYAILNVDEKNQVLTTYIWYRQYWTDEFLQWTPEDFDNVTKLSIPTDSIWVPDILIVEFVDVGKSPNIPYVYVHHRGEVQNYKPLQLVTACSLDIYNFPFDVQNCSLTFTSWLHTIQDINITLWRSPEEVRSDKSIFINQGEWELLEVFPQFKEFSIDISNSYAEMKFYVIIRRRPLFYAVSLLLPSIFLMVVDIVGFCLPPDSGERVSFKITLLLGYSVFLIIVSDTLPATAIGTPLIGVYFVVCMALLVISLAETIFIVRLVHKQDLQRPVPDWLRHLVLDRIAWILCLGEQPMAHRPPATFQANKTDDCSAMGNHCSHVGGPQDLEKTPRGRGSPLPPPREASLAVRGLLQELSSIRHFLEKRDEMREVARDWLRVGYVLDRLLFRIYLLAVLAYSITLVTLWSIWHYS

Assay [2] deals with T2, N128K mutant 5-HT3 receptor (mouse 5-HT3A subunit) (Mus musculus, UniProt P23979, N128K).
T2 sequence (P23979 24-489 N128K): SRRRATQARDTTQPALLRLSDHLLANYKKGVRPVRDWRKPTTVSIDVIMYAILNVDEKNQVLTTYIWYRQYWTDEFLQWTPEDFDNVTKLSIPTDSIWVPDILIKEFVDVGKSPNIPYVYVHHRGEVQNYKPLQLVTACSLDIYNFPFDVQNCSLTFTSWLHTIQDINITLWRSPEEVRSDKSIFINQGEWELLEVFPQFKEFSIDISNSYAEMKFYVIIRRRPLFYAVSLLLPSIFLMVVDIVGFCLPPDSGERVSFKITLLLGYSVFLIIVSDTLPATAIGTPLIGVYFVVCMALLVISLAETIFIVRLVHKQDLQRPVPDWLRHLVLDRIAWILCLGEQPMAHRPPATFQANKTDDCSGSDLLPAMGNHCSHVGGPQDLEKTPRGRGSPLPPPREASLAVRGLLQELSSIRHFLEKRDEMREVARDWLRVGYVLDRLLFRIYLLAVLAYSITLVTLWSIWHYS

In assay [3] the target is T3, N128A mutant 5-HT3 receptor (mouse 5-HT3A subunit) (Mus musculus, UniProt P23979, N128A).
T3 sequence (P23979 24-483 isoform P23979-2 N128A limits assumed): T1 sequence (P23979 24-483 isoform P23979-2 N128V limits assumed) with V105A
The following applies: N128A.

Assay [4] has as its target T4, E129D mutant 5-HT3 receptor (mouse 5-HT3A subunit) (Mus musculus, UniProt P23979, E129D).
T4 sequence (P23979 24-483 isoform P23979-2 E129D limits assumed): T1 sequence (P23979 24-483 isoform P23979-2 N128V limits assumed) with V105N, E106D
The note with it: E129D.

Assay [5] concerns the target T5, N128E mutant 5-HT3 receptor (mouse 5-HT3A subunit) (Mus musculus, UniProt P23979, N128E).
T5 sequence (P23979 24-483 isoform P23979-2 N128E limits assumed): T1 sequence (P23979 24-483 isoform P23979-2 N128V limits assumed) with V105E
The following applies: N128E.

For the molecule `NCCc1c[nH]c2ccc(O)cc12` [5-HT, 5-hydroxytryptamine], the “nH (Hill coefficient)” value in assay [1] is 3.18 ± 0.60; in assay [2], 2.13 ± 0.38; in assay [3], 1.34 ± 0.13 ^b; in assay [4], 1.81 ± 0.16 ^b; in assay [5] it was 1.48 ± 0.18 ^b. In addition, in assay [4], the “size of agonist response (current)” value was > 5 µA.
By EC50 is commonly meant the concentration giving half of the maximal effect. A lower EC50 goes with greater potency. The term pEC50 denotes the negative decadic logarithm of the EC50, by convention in mol/L. Low readings indicate a high EC50, high ones a low EC50. For `N=C(N)NC(=N)Nc1cccc(Cl)c1` [mCPBG, m-chlorophenylbiguanide], the EC50 in assay [1] was determined as 74 nM; in assay [2], 3.9 µM; in assay [3], 1100 nM; in assay [4], 250 nM; in assay [5], 280 nM. Moreover, the “nH (Hill coefficient)” value in assay [1] is 5.07 ± 0.85 ^b; in assay [2] it was 1.43 ± 0.16; in assay [3] it was 1.33 ± 0.08; in assay [4], 1.19 ± 0.31; in assay [5] it was 1.81 ± 0.019. Besides, the pEC50 in assay [1] is listed as 7.13 ± 0.02 ^b; in assay [2] it was 5.41 ± 0.03 ^b; in assay [3], 5.95 ± 0.02; in assay [4] (SR = small (<100 nA) responses), 6.60 ± 0.10; in assay [5], 6.56 ± 0.03. For the same molecule, in assay [4], the “size of agonist response (current)” value is on record as > 5 µA.

For the origin of these results see publication PMC2649372 (Biochemistry, 2008).
